{"source": "patent US8466202B2", "about": "“Anthracenedione compounds” (Sunten Phytotech Co., Ltd., priority 2006, dated 2013)", "key": {"healthy male S.D. rats [1]": {"test_system": "healthy male S.D. rats", "assay": "Feces production in rats given Rheum palmatum Linne extracts for three weeks (Example 2)", "assay_type": "in vivo, rat", "conditions": "oral everyday, Rheum palmatum crude extract 500, Bisacodyl 1.75, Sennosides 3.55, STD03 180, STD05-1 12, STD05-2 24 mg/kg; for Water content: feces; for Pellet count / Wet Weight: total of the six rats in the group", "method": "The laxative activities by Rheum palmatum Linne extracts were studied. A crude Rheum palmatum Linne extract and STD05 were obtained from SunTen Phytotech Co., Ltd. (Jhonghe City, Taiwan). Commercial available laxatives, Through® (Chung Mei Pharmaceutical Co., Ltd.; active ingredient: Sennosides 20 mg, as Sennosides A+B 12 mg, Lot. 009A 051) and Dulcolax® (Boehringer Ingelheim, Taiwan, Ltd.; active ingredient: Bisacodyl; Lot. 480-4942) were obtained from a pharmacy.\nForty-two healthy male S.D. rats (8 weeks old; National Laboratory Animal Center, Taiwan) were divided into seven groups (six in each) and tested for the laxative activity by Rheum palmatum Linne extracts. The rats in one group were not fed with any extract or drug and used as negative controls. The rats in the second and third group were given Sennosides (3.55 mg/kg) and Bisacodyl (1.75 mg/kg), respectively, and used as positive controls. The Rats in the other four groups were given Rheum palmatum Linne crude extract (500 mg/kg), filtered crude extract STD03 (180 mg/kg), and STD05 (STD05-1: 12 mg/kg and STD05-2: 24 mg/kg), respectively. All substances were administered orally everyday for three weeks.\nThe experiments were carried out under conditions in which temperature, humidity, and lighting were all controlled. Each rat was fed standard rat food and water ad libitum in housing that provided a 12-hour light/dark cycle. The rats were divided into seven groups according to the body weights.\nThe first part of the experiment studied the effect of the above-mentioned extracts on feces production. During the three-week period, any rat that appeared dying was euthanized, dissected, and studied to check for any illness or injures. Any complications or illness were analyzed by H&E stains to determine the cause of death and to allow for dosage reconsiderations for future experiments.\nDuring this period, the body weights of the rats were weighed each day and recorded. Feces of each rat were studied three times during the period for any unusual observations. Specifically, the amounts of feces were weighed on Days 11, 15, 18, and 21. During observation, each rat was placed in a metabolic cage. Feces were collected every twenty-four hours. The number of collected feces pellets was counted, and the pellets' shapes and colors were evaluated. After weighing the moist feces, they were dried in an oven at 100° C. for twenty-four hours. The water content from the feces was calculated according to the following formula: Water content percentage=[(wet weight−dry weight)/wet weight]×100%.\nIntestine motility data were expressed as mean±SD. Data were analyzed using the one-way ANOVA method. For comparison within the groups, a Post hoc Comparison was applied. In both feces production and intestine motility analyses, p<0.05 indicates significant differences. For the feces production tests, the data for each group and each time point represent the total wet weight or pellet count of the six rats in the group."}, "[2]": {"assay": "Enteric absorption rate (statement, no method given)", "conditions": "general statement"}, "[3]": {"assay": "Side effects compared with Rheum palmatum Linne herb extracts (statement, no method given)", "conditions": "general statement"}, "[4]": {"assay": "Body weight of rats over the 10-day period (Example 3)", "assay_type": "in vivo, rat", "parameters": "Body weight Difference: unit not given here", "conditions": "Group II, Sennosides 3.35 mg/kg/day, STD05 24 mg/kg, ARE 24 mg/kg, Chrysophanol 4 mg/kg, Emodin 4 mg/kg", "method": "The aforementioned STD05 and compounds were studied for the laxative activity. Healthy male S.D. rats (BioLASCO Taiwan Co. Ltd.) were divided into three groups (i.e., Groups 1-3) in this study. In Group I, 6 rats, as negative control, were given no treatment; 6 rats, as positive control, were given 3.35 mg/kg/day Sennosides (Through®, Chung Mei Pharmaceutical Co., Ltd; Active ingredient: Sennosides 20 mg, as sennoside A+B 12 mg, Lot. 012F 006); 6 rats were treated STD05 (8 mg/kg/day); 6 rats were treated with an extract fraction containing aloe-emodin, rhein, and emodin (“ARE”, 8 mg/kg/day); 6 rats were treated with Aloe-emodin (4 mg/kg/day); and 6 rats were treated with Rhein (4 mg/kg/day). In Group II, 6 rats, as negative control, were given no treatment; 6 rats, as positive control, were given 3.35 mg/kg/day Sennosides; 6 rats were treated STD05 (24 mg/kg/day); 6 rats were treated with an extract fraction containing ARE (24 mg/kg/day); 6 rats were treated with Chrysophanol (4 mg/kg/day); and 6 rats were treated with Emodin (4 mg/kg/day). In Group III, 6 rats, as negative control, were given no treatment; 6 rats were treated with Physcoin (4 mg/kg/day); and 6 rats were treated with a mixture of chrysophanol and physcion (8 mg/kg/day, “CP”). The experiments were carried out under controlled temperature, humidity, and lighting. Each rat was fed standard rat food and water ad libitum in housing that provided a 12-hour light/dark cycle. For statistical comparison, all of the rats were divided into six sets according to the body weights. The first part of the experiment studied the effect of the test substances on feces production. During the 10-day period, the body weights of the rats were weighed each day and recorded. The rat's feces was also studied three times in the manner described above during the 10-day period for any unusual observations. During the 10-day period, any rat that appeared dying was euthanized, dissected, and examined for any illness or injury. Any complications or illness were analyzed by H&E stains to determine the cause of death and to allow for dosage reconsiderations for future experiments. Summarized in Table 4 below are the effects of the compounds, mixtures, or extracts on the rat body weights."}, "healthy male S.D. rats [5]": {"test_system": "healthy male S.D. rats", "assay": "Feces production in rats over the 10-day period (Example 3)", "assay_type": "in vivo, rat", "conditions": "for increase of the feces amount (wet weight): vs control of the same group; for Pellet count / Water content / Wet Weight: Group II, Sennosides 3.35 mg/kg, STD05 24 mg/kg, ARE 24 mg/kg, Chrysophanol 4 mg/kg, Emodin 4 mg/kg", "method": "During this period, the body weights of the rats were weighed each day and recorded. Feces of each rat were studied three times during the period for any unusual observations. Specifically, the amounts of feces were weighed on Days 11, 15, 18, and 21. During observation, each rat was placed in a metabolic cage. Feces were collected every twenty-four hours. The number of collected feces pellets was counted, and the pellets' shapes and colors were evaluated. After weighing the moist feces, they were dried in an oven at 100° C. for twenty-four hours. The water content from the feces was calculated according to the following formula: Water content percentage=[(wet weight−dry weight)/wet weight]×100%. (I) The results are summarized in Table 2 below: The aforementioned STD05 and compounds were studied for the laxative activity. Healthy male S.D. rats (BioLASCO Taiwan Co. Ltd.) were divided into three groups (i.e., Groups 1-3) in this study. In Group I, 6 rats, as negative control, were given no treatment; 6 rats, as positive control, were given 3.35 mg/kg/day Sennosides (Through®, Chung Mei Pharmaceutical Co., Ltd; Active ingredient: Sennosides 20 mg, as sennoside A+B 12 mg, Lot. 012F 006); 6 rats were treated STD05 (8 mg/kg/day); 6 rats were treated with an extract fraction containing aloe-emodin, rhein, and emodin (“ARE”, 8 mg/kg/day); 6 rats were treated with Aloe-emodin (4 mg/kg/day); and 6 rats were treated with Rhein (4 mg/kg/day). In Group II, 6 rats, as negative control, were given no treatment; 6 rats, as positive control, were given 3.35 mg/kg/day Sennosides; 6 rats were treated STD05 (24 mg/kg/day); 6 rats were treated with an extract fraction containing ARE (24 mg/kg/day); 6 rats were treated with Chrysophanol (4 mg/kg/day); and 6 rats were treated with Emodin (4 mg/kg/day). In Group III, 6 rats, as negative control, were given no treatment; 6 rats were treated with Physcoin (4 mg/kg/day); and 6 rats were treated with a mixture of chrysophanol and physcion (8 mg/kg/day, “CP”). The experiments were carried out under controlled temperature, humidity, and lighting. Each rat was fed standard rat food and water ad libitum in housing that provided a 12-hour light/dark cycle. For statistical comparison, all of the rats were divided into six sets according to the body weights. The first part of the experiment studied the effect of the test substances on feces production. During the 10-day period, the body weights of the rats were weighed each day and recorded. The rat's feces was also studied three times in the manner described above during the 10-day period for any unusual observations. During the 10-day period, any rat that appeared dying was euthanized, dissected, and examined for any illness or injury. Any complications or illness were analyzed by H&E stains to determine the cause of death and to allow for dosage reconsiderations for future experiments. Summarized in Table 4 below are the effects of the compounds, mixtures, or extracts on the rat body weights. During the period, feces produced by the rats were studied days 1, 5, and 10 in the same manner described above. […] In the 10-day period, the rats administered with STD05 produced more feces (wet weight) that the rats in the control group by about 32%. In addition, the pellet counts for the rats administered with STD05 were greater than those for the control rats by about 20%. Furthermore, STD05 increased the water content in feces by about 18%. The same experiments were conducted on rats administered with physcion, aloe-emodin, chrysophanol, rhein, emodin, CP, and ARE."}}, "note": "Where “and” joins values, the source holds several entries; their conditions need not be identical. Identical values can stand only once."}
{"smiles": "CC(=O)Oc1ccc(C(c2ccc(OC(C)=O)cc2)c2ccccn2)cc1", "note": "[Bisacodyl]", "values": [{"measurement": "Water content", "setting": "healthy male S.D. rats [1]; Day 11", "value": 64.45, "unit": "%"}, {"measurement": "Pellet count", "setting": "healthy male S.D. rats [1]; Day 11", "value": 116}, {"measurement": "Wet Weight", "setting": "healthy male S.D. rats [1]; Day 11", "value": 33.84, "unit": "g"}, {"measurement": "Water content", "setting": "healthy male S.D. rats [1]; Day 15", "value": 68.34, "unit": "%"}, {"measurement": "Pellet count", "setting": "healthy male S.D. rats [1]; Day 15", "value": 110}, {"measurement": "Wet Weight", "setting": "healthy male S.D. rats [1]; Day 15", "value": 41.64, "unit": "g"}, {"measurement": "Water content", "setting": "healthy male S.D. rats [1]; Day 18", "value": 66.65, "unit": "%"}, {"measurement": "Pellet count", "setting": "healthy male S.D. rats [1]; Day 18", "value": 81}, {"measurement": "Wet Weight", "setting": "healthy male S.D. rats [1]; Day 18", "value": 30.14, "unit": "g"}, {"measurement": "Water content", "setting": "healthy male S.D. rats [1]; Day 21", "value": 68.02, "unit": "%"}, {"measurement": "Pellet count", "setting": "healthy male S.D. rats [1]; Day 21", "value": 108}, {"measurement": "Wet Weight", "setting": "healthy male S.D. rats [1]; Day 21", "value": 40.13, "unit": "g"}]}
{"smiles": "Cc1cc(O)c2c(c1)C(=O)c1cccc(O)c1C2=O", "note": "[Chrysophanol, chrysophanol]", "values": [{"measurement": "enteric absorption rate", "setting": "[2]", "value": "very low"}, {"measurement": "side effects often seen in herb extracts (cramping, bloating, gas, and diarrhea)", "setting": "[3]", "value": "do not have the side effects"}, {"measurement": "Body weight Difference, Mean", "setting": "[4]; group mean, Day 10 minus Day 1", "value": 33, "unit": "g"}, {"measurement": "Body weight End Day 10, Mean", "setting": "[4]; group mean", "value": 376, "unit": "g"}, {"measurement": "Body weight Difference", "setting": "[4]; individual rats, Day 10 minus Day 1", "value": "40 and 20 and 30 (2×) and 25 and 50"}, {"measurement": "Body weight End Day 10", "setting": "[4]; individual rats", "value": "370 (3×) and 385 and 350 and 410"}, {"measurement": "increase of the feces amount (wet weight)", "setting": "healthy male S.D. rats [5]; Day 1", "value": 19, "unit": "%"}, {"measurement": "increase of the feces amount (wet weight)", "setting": "healthy male S.D. rats [5]; Day 5", "value": 16, "unit": "%"}, {"measurement": "increase of the feces amount (wet weight)", "setting": "healthy male S.D. rats [5]; Day 10", "value": 14, "unit": "%"}, {"measurement": "Pellet count", "setting": "healthy male S.D. rats [5]; Day 1", "value": 128}, {"measurement": "Water content", "setting": "healthy male S.D. rats [5]; Day 1", "value": 50.82, "unit": "%"}, {"measurement": "Wet Weight", "setting": "healthy male S.D. rats [5]; Day 1", "value": 28.86, "unit": "g"}, {"measurement": "Pellet count", "setting": "healthy male S.D. rats [5]; Day 5", "value": 119}, {"measurement": "Water content", "setting": "healthy male S.D. rats [5]; Day 5", "value": 51.22, "unit": "%"}, {"measurement": "Wet Weight", "setting": "healthy male S.D. rats [5]; Day 5", "value": 26.48, "unit": "g"}, {"measurement": "Pellet count", "setting": "healthy male S.D. rats [5]; Day 10", "value": 127}, {"measurement": "Water content", "setting": "healthy male S.D. rats [5]; Day 10", "value": 56.52, "unit": "%"}, {"measurement": "Wet Weight", "setting": "healthy male S.D. rats [5]; Day 10", "value": 28.83, "unit": "g"}, {"measurement": "increase of the feces amount (wet weight), average", "setting": "healthy male S.D. rats [5]; average of Days 1, 5 and 10", "value": 16, "unit": "%"}]}
